In PubChem BioAssay AID2060609 (Molecular Pharmacology Branch, DTP, NCI, 2025) one finds viability, T/C and IC50 data, which are given here for eight compounds.

Several values for one entry are separate records, joined by “and”; a condition that tells them apart may be missing. Equal values may be shown once. A value given as a limit tells only on which side of the number the result lay.

The test system of the assay is 855422-203-R-J1-PDC complex spheroids, viability. In words: Anticancer human tumor 855422-203-R-J1-PDC patient-derived bladder carcinoma cell line growth inhibition [CLK]. The following applies: for viability, T/C: stronger effect = lower value; for IC50: curve of compound. An excerpt:
A high-throughput screen of multi-cell type tumor spheroids was designed to identify active combinations of […] and targeted small molecules. Complex spheroids include a stromal component modeled by human endothelial cells (HUVEC) and fibroblasts modeled by human mesenchymal stem cells (MSCs). The concentration ranges selected for each drug and investigational agent were based upon clinically achievable concentrations if the clinical Cmax of the agent was known.
Compounds. The drugs and investigational agents: cirtuvivint (SM08502; NSC835563), CC-671 (NSC850746), vemurafenib (NSC761431), tapotoclax (NSC804041), sotorasib (NSC818433), adagrasib (NSC831453), MRTX-1133 (NSC836407), BAY2416964 (NSC825713), copanlisib (NSC816437), inavolisib (NSC800729), abemaciclib (NSC768073), osimertinib (NSC779217), entinostat (NSC756642), eltanexor (KPT-8602, NSC794443), venetoclax (NSC766270), ceralasertib (NSC777638), bortezomib (NSC756655), olaparib (NSC753686), talazoparib (NSC767125), alisertib (NSC759677), peposertib (NSC802822), gemcitabine (NSC613327), 5-fluorouracil (NSC19893), SN-38 (NSC673596), oxaliplatin (NSC266046), paclitaxel (NSC125973), and doxorubicin (NSC123127), were obtained from the National Cancer Institute (NCI) Developmental Therapeutics Program Chemical Repository. The FDA-approved anticancer drug set is available from the Developmental Therapeutics Program at https://dtp.cancer.gov/organization/dscb/obtaining/available plates.htm. […] The stock solutions were prepared in dimethyl sulfoxide (DMSO, Sigma-Aldrich, St. Louis, MO, cat. D2650), except for the platinum complexes which were prepared in saline (Quality Biological, Gaithersburg, MD, cat. 114-055-101), at 800-fold the tested concentration and stored at -70 degrees C prior to their use. All drugs and investigational agents were tested over a range starting from a high concentration at or near the clinical Cmax and decreasing in half-log increments. If the clinical Cmax for an agent had not been determined, the highest concentration tested was 10 microM.
Cell Culture. All cells were maintained in an incubator at 37 degrees C and 5% CO2 with 95% humidity. The PDC lines were cultured according to standard operating procedures established by the NCI PDMR. Briefly, all PDCs were thawed and cultured in Matrigel-coated flasks prepared with a working solution of 1X Ham's F-12 nutrient mix, without supplementation (Invitrogen, Waltham, MA, cat. 11765054), 100 U/mL penicillin-streptomycin (Invitrogen, cat. 15140122), and 2.5% Matrigel (Corning Inc., Corning, NY, cat. 354248) for the first three passages. The 947758-054-R-J2-PDC line was cultured in 6B/Colon 1A media, which includes advanced DMEM/F-12 (Thermo Fisher Scientific, cat. 12634028), 10 mM HEPES (Thermo Fisher Scientific, cat. 15630080), 1X GlutaMAX supplement (Thermo Fisher Scientific, cat. 35050061), 0.1 mg/mL primocin (InvivoGen, cat. ant-pm-2), 10% defined fetal bovine serum, heat inactivated (HyClone Laboratories Inc., cat. SH30070.03HI), 1.25 mM N-Acetyl-L-cysteine (Sigma-Aldrich, cat. A9165), 10 mM nicotinamide (Sigma-Aldrich, cat. N0636), 1X B-27 supplement (Thermo Fisher Scientific, cat. 17504044), 1X N-2 supplement (Thermo Fisher Scientific, cat. 17502048), and 10 microM Y-27632 dihydrochloride (Tocris Bioscience, cat. 1254). The 876862-298-R-J1-PDC was cultured in 6E media, which includes all 6B/Colon 1A media components plus 50% L-WRN conditioned media (ATCC, cat. CRL-3276), 50 ng/mL recombinant human EGF recombinant protein (hEGF; Thermo Fisher Scientific, cat. PHG0311), 10 ng/mL recombinant human fibroblast growth factor 10 (hGFG-10; PeproTech, cat. 100-26), 1 ng/mL recombinant human fibroblast growth factor 2 (hFGF-2; PeproTech, cat. 100-18B), and 1 µM prostaglandin E2 (PGE2; Tocris, cat. 2296). The 227483-062-R1-J1-PDC line was cultured in Panc media, containing all 6E components except hFGF-2, with the addition of 500 nM SB-431542 (Selleckchem, cat. S1067) and 10 nM gastrin (Tocris, cat. 3006). […]
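Also: spheroids exposed to drugs for seven days before readout.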
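For viability, T/C in this document: 100% = DMSO vehicle control wells.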

As to `C#Cc1c(F)ccc2cc(O)cc(-c3ncc4c(N5CC6CCC(C5)N6)nc(OCC56CCCN5CC(F)C6)nc4c3F)c12` (stereo unspecified), the IC50 (commonly the concentration that inhibits the measured activity by half) was > 10 µM. In addition, for the setting “compound 0.0316 µM”, the viability, T/C (commonly the result in the treated group divided by that in the control group, in per cent) is 118% and 106%. The viability, T/C (compound 0.1 µM) is 92.7% and 95.3%. The viability, T/C (compound 0.316 µM) was 117% and 113%. In addition, where the note is “compound 1 µM”, the viability, T/C is 114% and 97.7%. In addition, the viability, T/C (compound 3.16 µM) was 119% and 104%. Besides, where the note is “compound 10 µM”, the viability, T/C is 98.7% and 112%.
As to `C=C(F)C(=O)N1CCN(c2nc(OCC3CCCN3C)nc3c2CCN(c2cccc4cccc(Cl)c24)C3)CC1CC#N` (stereo unspecified), the IC50 is 1.94 µM and 2.34 µM. Under “compound 0.0316 µM”, the viability, T/C is 94.2% and 121%. For the same compound, the viability, T/C (compound 0.1 µM) was 111% and 115%. The viability, T/C (compound 0.316 µM) is 93.3% and 113%. Further, the viability, T/C (compound 1 µM) is 111% and 123%. Also, the viability, T/C (compound 3.16 µM) was 11.1% and 26%. Besides, where the note is “compound 10 µM”, the viability, T/C was 1.51% and 0.48%.
With `C=CC(=O)N1CCN(c2nc(=O)n(-c3c(C)ccnc3C(C)C)c3nc(-c4c(O)cccc4F)c(F)cc23)C(C)C1` (stereo unspecified), the IC50 is > 10 µM. Further, the viability, T/C (compound 0.0316 µM) was 91.5% and 117%. Moreover, the viability, T/C (compound 0.1 µM) is 95.7% and 105%. Further, where the note is “compound 0.316 µM”, the viability, T/C is 121% and 122%. The viability, T/C (compound 1 µM) was 131% and 149%. Also, the viability, T/C (compound 3.16 µM) was 174% and 201%. Besides, the viability, T/C (compound 10 µM) was 161% and 180%.
Consider `C=CC(=O)Nc1cc(Nc2nccc(-c3cn(C)c4ccccc34)n2)c(OC)cc1N(C)CCN(C)C`, for which the IC50 is > 0.3 µM. Also, under “compound 0.000949 µM”, the viability, T/C was 112% and 158%. Moreover, the viability, T/C (compound 0.003 µM) is 91.3% and 98.2%. Besides, the viability, T/C (compound 0.00949 µM) is 107% and 117%. Where the note is “compound 0.03 µM”, the viability, T/C is 99.9% and 90.9%. Moreover, the viability, T/C (compound 0.0949 µM) was 108% and 118%. Moreover, the viability, T/C (compound 0.3 µM) is 101% and 98.4%.
Turning to `CC(C)CC(NC(=O)C(Cc1ccccc1)NC(=O)c1cnccn1)B(O)O` (stereo unspecified), the IC50 is < 0.000949 µM. Moreover, where the note is “compound 0.000949 µM”, the viability, T/C is 2.8% and 2.47%. The viability, T/C (compound 0.003 µM) is 0.77% and 0.18%. In addition, where the note is “compound 0.00949 µM”, the viability, T/C is 0.19% and 0.16%. Besides, the viability, T/C (compound 0.03 µM) was 0.36% and 0.17%. Moreover, the viability, T/C (compound 0.0949 µM) is 0.46% and 0.15%. Moreover, the viability, T/C (compound 0.3 µM) was 0.24% and 0.15%.
For the compound `CC(CO)NC(=O)c1cc(-c2ccc(Cl)cc2)nn(-c2cnn(C)c2)c1=O` (stereo unspecified), the IC50 was > 10 µM. Besides, the viability, T/C (compound 0.0316 µM) was 92.5% and 94.5%. For the same compound, the viability, T/C (compound 0.1 µM) was 89.1% and 85.5%. Moreover, the viability, T/C (compound 0.316 µM) was 94.6% and 92.7%. The viability, T/C (compound 1 µM) was 93.5% and 99.6%. Further, for the setting “compound 3.16 µM”, the viability, T/C is 110% and 99.5%. In addition, for the setting “compound 10 µM”, the viability, T/C is 82.2% and 94%.
On to `CC(Nc1ccc2c(c1)OCCn1cc(N3C(=O)OCC3C(F)F)nc1-2)C(N)=O` (stereo unspecified), for which the IC50 was 0.294 µM and 0.249 µM. Under “compound 0.0316 µM”, the viability, T/C is 94.9% and 74%. For the same compound, the viability, T/C (compound 0.1 µM) is 71% and 67.6%. Besides, the viability, T/C (compound 0.316 µM) is 50.9% and 45.7%. Further, for the setting “compound 1 µM”, the viability, T/C is 28.4% and 20.6%. In addition, under “compound 3.16 µM”, the viability, T/C is 21.2% and 20.3%. For the same compound, under “compound 10 µM”, the viability, T/C is 16.1% and 11.5%.
Take `CC1(C)CCC(CN2CCN(c3ccc(C(=O)NS(=O)(=O)c4ccc(NCC5CCOCC5)c([N+](=O)[O-])c4)c(Oc4cnc5[nH]ccc5c4)c3)CC2)=C(c2ccc(Cl)cc2)C1`: the IC50 was 6.14 µM and 6.39 µM. Further, where the note is “compound 0.0316 µM”, the viability, T/C is 107% and 106%. Also, the viability, T/C (compound 0.1 µM) is 90.2% and 119%. Also, where the note is “compound 0.316 µM”, the viability, T/C is 117% and 124%. In addition, for the setting “compound 1 µM”, the viability, T/C is 103% and 118%. Also, the viability, T/C (compound 3.16 µM) is 159% and 150%. For the same compound, the viability, T/C (compound 10 µM) is 1.83% and 3.19%.
